# Columns and labels:
# Type in all cases: in vivo
# [1] = system: Sunflower; assay: Test C preemergence; conditions: Rate 500 g/ha, visual evaluation after 12 to 14 days
# [2] = system: lambsquarters (Chenopodium album); assay: Test B preemergence
# Procedure, shortened: (§1)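 Pre: seeded pots sprayed, chemical in non-phytotoxic solvent/surfactant mix. Post: plants 2–18 cm, 1–4 leaf, same formulation. Greenhouse 13–15 d; visual % control vs untreated, 0–100 scale.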
# [3] = system: rice (Oryza saliva); assay: Test B preemergence
# Procedure, shortened: as §1
# [4] = system: crabgrass (Digitaria sanguinalis); assay: Test B preemergence
# Procedure, shortened: as §1
# [5] = system: giant foxtail (Setaria faberii); assay: Test B preemergence
# Procedure, shortened: as §1
# [6] = system: corn (Zea mays); assay: Test B preemergence
# Procedure, shortened: as §1
# [7] = system: morning glory (Ipomoea hederacea); assay: Test B preemergence
# Procedure, shortened: as §1
# [8] = system: Surinam grass (Brachiaria decumbens); assay: Test B preemergence
# Procedure, shortened: as §1
# [9] = system: velvetleaf (Abutilon theophrasti); assay: Test B preemergence
# Procedure, shortened: as §1
# [10] = system: barnyardgrass (Echinochloa crus-galli); assay: Test B preemergence
# Procedure, shortened: as §1
# [11] = system: cocklebur (Xanthium strumarium); assay: Test B preemergence
# Procedure, shortened: as §1
# [12] = system: pigweed (Amaranthus retroflexus); assay: Test B preemergence
# Procedure, shortened: as §1
# [13] = system: morningglory (Ipomoea hederacea); assay: Test C preemergence; conditions: for Plant response rating, Morningglory: scale 0 to 100, 0 no effect, 100 complete control
# Text: (§2) Seeds of plant species selected from bermudagrass (Cynodon dactylon), Surinam grass (Brachiaria decumbens), cocklebur (Xanthium strumarium), corn (Zea mays), crabgrass (Digitaria sanguinalis), woolly cupgrass (Eriochloa villosa), giant foxtail (Setaria faberii), goosegrass (Eleusine indica), johnsongrass (Sorghum halepense), kochia (Kochia scoparia), lambsquarters (Chenopodium album), morningglory (Ipomoea hederacea), yellow nutsedge (Cyperus esculentus), pigweed (Amaranthus retroflexus), common ragweed (Ambrosia elatior), soybean (Glycine max) and velvetleaf (Abutilon theophrasti) were planted and treated preemergence with test chemicals formulated in a non-phytotoxic solvent mixture which included a surfactant.
# (§3) At the same time, plants selected from these crop and weed species and also winter barley (Hordeum vulgare), blackgrass (Alopecurus myosuroides), canary grass (Phalaris minor), chickweed (Stellaria media), downy brome (Bromus tectorum), green foxtail (Setaria viridis), Italian ryegrass (Lolium multiflorum), wheat (Triticum aestivum), wild oat (Avena fatua) and windgrass (Apera spica-venti) were treated with postemergence applications of some of the test chemicals formulated in the same manner. Plants ranged in height from 2 to 18 cm (1- to 4-leaf stage) for postemergence treatments. Plant species in the flooded paddy test consisted of rice (Oryza saliva), smallflower flatsedge (Cyperus difformis), duck salad (Heteranthera limosa) and barnyardgrass (Echinochloa crus-galli) grown to the 2-leaf stage for testing. Treated plants and controls were maintained in a greenhouse for 12 to 14 days, after which time all species were compared to controls and visually evaluated. Plant response ratings, summarized in Table C, are based on a scale of 0 to 100 where 0 is no effect and 100 is complete control. A dash (-) response means no test result.
# [14] = system: crabgrass (Digitaria sanguinalis); assay: Test C preemergence; conditions: for Plant response rating, Crabgrass: scale 0 to 100, 0 no effect, 100 complete control; for Plant response rating (0 to 100), Crabgrass: visual evaluation after 12 to 14 days
# Text: as §2, §3
# [15] = system: giant foxtail (Setaria faberii); assay: Test C preemergence; conditions: for Plant response rating, Foxtail, Giant: scale 0 to 100, 0 no effect, 100 complete control; for Plant response rating (0 to 100), Foxtail, Giant: visual evaluation after 12 to 14 days
# Text: as §2, §3
# [16] = system: common ragweed (Ambrosia elatior); assay: Test C preemergence; conditions: preemergence; for Plant response rating, Ragweed, Common: scale 0 to 100, 0 no effect, 100 complete control
# Text: as §2, §3
# [17] = system: bermudagrass (Cynodon dactylon); assay: Test C preemergence; conditions: for Plant response rating, Bermudagrass: scale 0 to 100, 0 no effect, 100 complete control; for Plant response rating (0 to 100 where 0 is no effect and 100 is complete control), Bermudagrass: visual evaluation after 12 to 14 days
# Text: as §2, §3
# [18] = system: Surinam grass (Brachiaria decumbens); assay: Test C preemergence; conditions: for Plant response rating, Surinam grass: scale 0 to 100, 0 no effect, 100 complete control; for Plant response rating (0 to 100), Surinam grass: visual evaluation after 12 to 14 days
# Text: as §2, §3
# [19] = system: velvetleaf (Abutilon theophrasti); assay: Test C preemergence; conditions: preemergence; for Plant response rating, Velvetleaf: scale 0 to 100, 0 no effect, 100 complete control
# Text: as §2, §3
# [20] = system: goosegrass (Eleusine indica); assay: Test C preemergence; conditions: for Plant response rating, Goosegrass: scale 0 to 100, 0 no effect, 100 complete control; for Plant response rating (0 to 100), Goosegrass: visual evaluation after 12 to 14 days
# Text: as §2, §3
# [21] = system: cocklebur (Xanthium strumarium); assay: Test C preemergence; conditions: for Plant response rating, Cocklebur: scale 0 to 100, 0 no effect, 100 complete control; for Plant response rating (0 to 100), Cocklebur: visual evaluation after 12 to 14 days
# Text: as §2, §3
# [22] = Preemergence, Rate 500 g/ha, scale 0 to 100, 0 no effect, 100 complete control
# [23] = preemergence, Rate 125 g/ha, scale of 0 to 100 where 0 is no effect and 100 is complete control, 13 to 15 days
# [24] = Rate 500 g/ha, visual evaluation after 12 to 14 days
structure (smiles),measurement,setting,value
CCC(C)c1ccn(C2OCN(c3cccc(OC(F)(F)F)c3)C2=O)n1 (stereo not drawn) [Compound 67],"Plant response rating (0 to 100), Sunflower",[1],30
same,"Plant response rating, Lambsquarters",[2]; [22],100
same,"Plant response rating, Lambsquarters",[2]; [23],100
same,"Plant response rating, Rice",[3]; [22],40
same,"Plant response rating, Rice",[3]; [23],40
same,"Plant response rating, Crabgrass",[4]; [22],80
same,"Plant response rating, Crabgrass",[4]; [23],20
same,"Plant response rating, Foxtail, Giant",[5]; [22],40
same,"Plant response rating, Foxtail, Giant",[5]; [23],40
same,"Plant response rating, Corn",[6]; [22],20
same,"Plant response rating, Corn",[6]; [23],0
same,"Plant response rating, Morningglory",[7]; [22],0
same,"Plant response rating, Morningglory",[7]; [23],0
same,"Plant response rating, Surinam grass",[8]; [22],50
same,"Plant response rating, Surinam grass",[8]; [23],20
same,"Plant response rating, Velvetleaf",[9]; [22],0
same,"Plant response rating, Velvetleaf",[9]; [23],0
same,"Plant response rating, Barnyardgrass",[10]; [22],100
same,"Plant response rating, Barnyardgrass",[10]; [23],60
same,"Plant response rating, Cocklebur",[11]; [22],0
same,"Plant response rating, Cocklebur",[11]; [23],0
same,"Plant response rating, Pigweed",[12]; [22],100
same,"Plant response rating, Pigweed",[12]; [23],100
same,"Plant response rating, Morningglory",[13]; Rate 62 g/ha,0
same,"Plant response rating (0 to 100), Morningglory","[13]; preemergence, Rate 500 g/ha, visual evaluation after 12 to 14 days",20
same,"Plant response rating, Morningglory","[13]; preemergence, Rate 125 g/ha",0
same,"Plant response rating, Morningglory","[13]; preemergence, Rate 250 g/ha",0
same,"Plant response rating, Crabgrass",[14]; Rate 62 g/ha,100
same,"Plant response rating (0 to 100), Crabgrass","[14]; preemergence, Rate 250 g/ha",100
same,"Plant response rating (0 to 100), Crabgrass","[14]; preemergence, Rate 500 g/ha",100
same,"Plant response rating, Crabgrass","[14]; preemergence, Rate 125 g/ha",100
same,"Plant response rating, Foxtail, Giant",[15]; Rate 62 g/ha,100
same,"Plant response rating (0 to 100), Foxtail, Giant","[15]; preemergence, Rate 250 g/ha",70
same,"Plant response rating (0 to 100), Foxtail, Giant","[15]; preemergence, Rate 500 g/ha",100
same,"Plant response rating, Foxtail, Giant","[15]; preemergence, Rate 125 g/ha",100
same,"Plant response rating (0 to 100), Ragweed, Common",[16]; [24],70
same,"Plant response rating, Ragweed, Common",[16]; Rate 125 g/ha,20
same,"Plant response rating, Ragweed, Common",[16]; Rate 250 g/ha,70
same,"Plant response rating, Bermudagrass",[17]; Rate 62 g/ha,100
same,"Plant response rating (0 to 100 where 0 is no effect and 100 is complete control), Bermudagrass","[17]; preemergence, Rate 250 g/ha",100
same,"Plant response rating (0 to 100 where 0 is no effect and 100 is complete control), Bermudagrass","[17]; preemergence, Rate 500 g/ha",100
same,"Plant response rating, Bermudagrass","[17]; preemergence, Rate 125 g/ha",100
same,"Plant response rating, Surinam grass",[18]; Rate 62 g/ha,0
same,"Plant response rating (0 to 100), Surinam grass","[18]; preemergence, Rate 250 g/ha",100
same,"Plant response rating (0 to 100), Surinam grass","[18]; preemergence, Rate 500 g/ha",100
same,"Plant response rating, Surinam grass","[18]; preemergence, Rate 125 g/ha",0
same,"Plant response rating (0 to 100), Velvetleaf",[19]; [24],30
same,"Plant response rating, Velvetleaf",[19]; Rate 125 g/ha,50
same,"Plant response rating, Velvetleaf",[19]; Rate 250 g/ha,0
same,"Plant response rating, Goosegrass",[20]; Rate 62 g/ha,100
same,"Plant response rating (0 to 100), Goosegrass","[20]; preemergence, Rate 250 g/ha",100
same,"Plant response rating (0 to 100), Goosegrass","[20]; preemergence, Rate 500 g/ha",100
same,"Plant response rating, Goosegrass","[20]; preemergence, Rate 125 g/ha",100
same,"Plant response rating, Cocklebur",[21]; Rate 62 g/ha,0
same,"Plant response rating (0 to 100), Cocklebur","[21]; preemergence, Rate 250 g/ha",20
same,"Plant response rating (0 to 100), Cocklebur","[21]; preemergence, Rate 500 g/ha",50
same,"Plant response rating, Cocklebur","[21]; preemergence, Rate 125 g/ha",0

# Reference: US7138361B2, “Herbicidal heterocycles” (E. I. du Pont de Nemours and Company, priority 2000, dated 2006)
